Columns and labels:
[1] = system: rabbit aorta strip contracted with noradrenaline; experiment: rabbit aorta strip contracted with noradrenaline (in vitro vasorelaxing activity); assay type: cell-based; settings: Oryctolagus cuniculus, concentration causing 50% inhibition of the contraction of the rabbit aorta strip, read-out: Vasodilative activity in vitro IC50
Experimental: The in vitro vasorelaxing activity was determined by the test of the rabbit aorta strip contracted with noradrenaline. The test was carried out according to the method described by K. Murakami et al., Eur. J. Pharmacol., 141, 195 (1987).
The IC50 values i.e., the concentrations of active substances, causing a 50% inhibition of the contraction of the rabbit strip, were determined.

[2] = system: Arg-vasopressin induced coronaric spasm in anesthetized Sprague Dawley rats; experiment: antianginal activity in vivo, Arg-vasopressin-induced coronaric spasm (increase of the T-wave); settings: for % Inhibition of the increase of the T-wave versus the controls: 3 mg/Kg per os, Arg-vasopressin i.v.; for ED50: Rattus norvegicus, iv, 4 increasing doses, Arg-vasopressin, read-out: ED50 (i.v.), dose yielding the 50% inhibition of the increase of the T-wave
Experimental: The antianginal activity in vivo was determined on anesthetized Sprague Dawley rats of weight 350-400 g, operating according to the method of M. Leitold et al., Arzeim. Forsch., 36, 1454, (1986). The test was carried out by intravenously administering the animals with one I.U/Kg, equivalent to […] of Arg-vasopressin, thus inducing a coronaric spasm that is reproducible and may be electrocardiographically monitored by an increase of the T-wave. The compounds of the invention were administered by gastric gavage at a dose of 3 mg/Kg one […] before the administration of Arg-vasopressin. The antianginal effect was expressed as the percentage inhibition of the increase of the T-wave versus the controls. Another group of animals were intravenously administered with 4 increasing doses of the compound of the invention to measure their ED50, i.e. the dose yielding the 50% inhibition of the increase of the T-wave.

[3] = B. W. Horrom et al., J. Org. Chem., 72, 721 (1950); cited from earlier work

Cc1ccc2c(c1)OCN(CCO[N+](=O)[O-])C2=O [Example 4, 2,3-Dihydro-7-methyl-3-(2'-nitrooxyethyl)-4H-1,3-benzoxazin-4-one]
IC50 [1]: 75 nM
% Inhibition of the increase of the T-wave versus the controls [2]: 31%
ED50 [2]: 0.012 mg/kg

O=C1c2ccccc2OCN1CCCCCO[N+](=O)[O-] [Example 8, 2,3-Dihydro-3-(5'-nitrooxypentyl)-4H-1,3-benzoxazin-4-one]
IC50 [1]: 19 nM
ED50 [2]: 0.058 mg/kg

Cc1ccc2c(c1)C(=O)N(CCO[N+](=O)[O-])CO2 [Example 2, 2,3-Dihydro-6-methyl-3-(2'-nitrooxyethyl)-4H-1,3-benzoxazin-4-one]
IC50 [1]: 5.4 nM
ED50 [2]: 0.0063 mg/kg

O=C1NC(c2ccccc2)Oc2ccccc21 (stereo not shown) [2,3-dihydro-2-phenyl-4H-1,3-benzoxazin-4-one]
analgesic activity [3]: endowed with analgesic activity

O=C1c2ccccc2SCN1CCO[N+](=O)[O-] [Example 10, 3(2'-nitrooxyethyl)-2,3-dihydro-4H-1,3-benzothiazin-4-one]
IC50 [1]: 17 nM

COc1ccc2c(c1)OCN(CCO[N+](=O)[O-])C2=O [Example 9, 2,3-Dihydro-7-methoxy-3-(2'-nitrooxyethyl)-4H-1,3-benzoxazin-4-one]
IC50 [1]: 14 nM

O=C1c2ccccc2OCN1CCO[N+](=O)[O-] [Example 1, 2,3-Dihydro-3-(2'-nitrooxyethyl)-4H-1,3-benzoxazin-4-one]
IC50 [1]: 94 nM
% Inhibition of the increase of the T-wave versus the controls [2]: 55%
ED50 [2]: 0.0013 mg/kg

O=C1c2ccc(Cl)cc2OCN1CCO[N+](=O)[O-] [Example 3, 7-Chloro-2,3-dihydro-3-(2'-nitrooxyethyl)-4H-1,3-benzoxazin-4-one]
IC50 [1]: 6.3 nM
% Inhibition of the increase of the T-wave versus the controls [2]: 31%
ED50 [2]: 0.011 mg/kg

— patent publication US5189034A, “Benzoxazinone and benzothiazinone derivatives endowed with cardiovascular activity” (Italfarmaco S.P.A., priority 1990, dated 1993)
